Experimental data published in PubChem BioAssay AID1963433 (Molecular Pharmacology Branch, DTP, NCI, 2024).
pIC50: −log10 of the molar value. Values joined by “and” are separate entries in the source; they are usually repeats but may differ in a detail not shown here. Equal entries are not always repeated.

System: 772245-204-R-J1-PDC complex spheroid growth
Experiment: Anticancer human tumor 772245-204-R-J1-PDC patient-derived rhabdomyosarcoma cell line growth inhibition [Asc]
Conditions: for viability, T/C: stronger effect = lower value
In short: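 Tumor cells were grown as complex spheroids with human endothelial cells (HUVEC) and human mesenchymal stem cells as stroma. Agents were tested alone and in combination, in half-log steps down from the clinical Cmax, or from 10 microM where Cmax was unknown.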

[1] = curve of first compound, second compound 0.03 µM
[2] = curve of first compound, second compound 0.0949 µM
[3] = curve of first compound, second compound 0.3 µM
[4] = curve of first compound, second compound 0.949 µM
[5] = curve of first compound, second compound 3 µM
[6] = second compound 0.03 µM, first compound 0.0316 µM
[7] = second compound 0.03 µM, first compound 0.1 µM
[8] = second compound 0.03 µM, first compound 0.316 µM
[9] = second compound 0.03 µM, first compound 1 µM
[10] = second compound 0.0949 µM, first compound 0.0316 µM
[11] = second compound 0.0949 µM, first compound 0.1 µM
[12] = second compound 0.0949 µM, first compound 0.316 µM
[13] = second compound 0.0949 µM, first compound 1 µM
[14] = second compound 0.3 µM, first compound 0.0316 µM
[15] = second compound 0.3 µM, first compound 0.1 µM
[16] = second compound 0.3 µM, first compound 0.316 µM
[17] = second compound 0.3 µM, first compound 1 µM
[18] = second compound 0.949 µM, first compound 0.0316 µM
[19] = second compound 0.949 µM, first compound 0.1 µM
[20] = second compound 0.949 µM, first compound 0.316 µM
[21] = second compound 0.949 µM, first compound 1 µM
[22] = second compound 3 µM, first compound 0.0316 µM
[23] = second compound 3 µM, first compound 0.1 µM
[24] = second compound 3 µM, first compound 0.316 µM
[25] = second compound 3 µM, first compound 1 µM
[26] = curve of first compound, second compound 0.1 µM
[27] = curve of first compound, second compound 0.316 µM
[28] = curve of first compound, second compound 1 µM
[29] = curve of first compound, second compound 3.16 µM
[30] = curve of first compound, second compound 10 µM
[31] = second compound 0.1 µM, first compound 0.0316 µM
[32] = second compound 0.1 µM, first compound 0.1 µM
[33] = second compound 0.316 µM, first compound 0.0316 µM
[34] = second compound 0.316 µM, first compound 0.1 µM
[35] = second compound 1 µM, first compound 0.0316 µM
[36] = second compound 1 µM, first compound 0.1 µM
[37] = second compound 3.16 µM, first compound 0.0316 µM
[38] = second compound 3.16 µM, first compound 0.1 µM
[39] = second compound 10 µM, first compound 0.0316 µM
[40] = second compound 10 µM, first compound 0.1 µM
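Further: compound exposure lasted seven days.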
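Wherever viability, T/C is given: 100% = DMSO vehicle control viability.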

C=C(F)C(=O)N1CCN(c2nc(OCC3CCCN3C)nc3c2CCN(c2cccc4cccc(Cl)c24)C3)CC1CC#N (stereo not given) + CCN1C(C(=O)NC23CCC(C(=O)O)(CC2)CC3)C(c2cccc(Cl)c2F)C2(C(=O)Nc3cc(Cl)ccc32)C12CCCCC2
pIC50 [1]: 5.41 | pIC50 [2]: 5.40 | pIC50 [3]: 5.35 | pIC50 [4]: 5.48 | pIC50 [5]: 5.68 | viability, T/C [6]: 94.9% | viability, T/C [7]: 101% | viability, T/C [8]: 83.1% | viability, T/C [9]: 97.2% | viability, T/C (second compound 0.03 µM, first compound 3.16 µM): 61.6% | viability, T/C (second compound 0.03 µM, first compound 10 µM): 0.2% | viability, T/C [10]: 93.7% | viability, T/C [11]: 94.5% | viability, T/C [12]: 85.3% | viability, T/C [13]: 89.6% | viability, T/C (second compound 0.0949 µM, first compound 3.16 µM): 61.7% | viability, T/C (second compound 0.0949 µM, first compound 10 µM): 0.17% | viability, T/C [14]: 95.8% | viability, T/C [15]: 96.7% | viability, T/C [16]: 85.6% | viability, T/C [17]: 87% | viability, T/C (second compound 0.3 µM, first compound 3.16 µM): 71.8% | viability, T/C (second compound 0.3 µM, first compound 10 µM): 0.18% | viability, T/C [18]: 92.3% | viability, T/C [19]: 83.7% | viability, T/C [20]: 91.6% | viability, T/C [21]: 96.7% | viability, T/C (second compound 0.949 µM, first compound 3.16 µM): 51.9% | viability, T/C (second compound 0.949 µM, first compound 10 µM): 0.16% | viability, T/C [22]: 72.7% | viability, T/C [23]: 79.8% | viability, T/C [24]: 72.5% | viability, T/C [25]: 73% | viability, T/C (second compound 3 µM, first compound 3.16 µM): 37.5% | viability, T/C (second compound 3 µM, first compound 10 µM): 0.38%

CNC(C)C(=O)NC1CN(S(=O)(=O)c2cccc(S(=O)(=O)N3CCC4CCC(C(=O)NC(c5ccccc5)c5ccccc5)N4C(=O)C(NC(=O)C(C)NC)C3)c2)CCC2CCC(C(=O)NC(c3ccccc3)c3ccccc3)N2C1=O (stereo not given)
viability, T/C (compound 0.00316 µM): 94.7% and 94.4% and 79% | viability, T/C (compound 0.01 µM): 93.9% [middle of 14 runs] | pIC50 (compound alone, run of 10/24/2022): < 6.00 | pIC50 (compound alone, run of 11/15/2022): < 6.00 | pIC50 (curve of compound): < 6.00

O=C(c1cc(Cc2n[nH]c(=O)c3ccccc23)ccc1F)N1CCN(C(=O)C2CC2)CC1 + Cc1c(S(C)(=O)=O)c(-c2cc(F)cc(N3CCN(c4ccc(NS(=O)(=O)c5ccc(NC(CCN6CCC(C(=O)OCCCP(=O)(O)O)CC6)CSc6ccccc6)c(S(=O)(=O)C(F)(F)F)c5)cc4)CC3)c2)c(-c2ccc(Cl)cc2)n1C(C)C
pIC50 [26]: 5.49 | pIC50 [27]: 6.36 | pIC50 [28]: 7.35 | pIC50 [29]: > 7.50 | pIC50 [30]: > 7.50 | viability, T/C [31]: 76.8% | viability, T/C [32]: 81.5% | viability, T/C (second compound 0.1 µM, first compound 0.316 µM): 83.2% | viability, T/C (second compound 0.1 µM, first compound 1 µM): 63.6% | viability, T/C (second compound 0.1 µM, first compound 3.16 µM): 52.7% | viability, T/C (second compound 0.1 µM, first compound 10 µM): 34.3% | viability, T/C [33]: 62.8% | viability, T/C [34]: 50.5% | viability, T/C (second compound 0.316 µM, first compound 0.316 µM): 44.2% | viability, T/C (second compound 0.316 µM, first compound 1 µM): 54.5% | viability, T/C (second compound 0.316 µM, first compound 3.16 µM): 28.5% | viability, T/C (second compound 0.316 µM, first compound 10 µM): 10.6% | viability, T/C [35]: 52.1% | viability, T/C [36]: 46.8% | viability, T/C (second compound 1 µM, first compound 0.316 µM): 46.9% | viability, T/C (second compound 1 µM, first compound 1 µM): 30.7% | viability, T/C (second compound 1 µM, first compound 3.16 µM): 12.8% | viability, T/C (second compound 1 µM, first compound 10 µM): 6.31% | viability, T/C [37]: 26.3% | viability, T/C [38]: 36.3% | viability, T/C (second compound 3.16 µM, first compound 0.316 µM): 33.9% | viability, T/C (second compound 3.16 µM, first compound 1 µM): 22% | viability, T/C (second compound 3.16 µM, first compound 3.16 µM): 6.64% | viability, T/C (second compound 3.16 µM, first compound 10 µM): 2.64% | viability, T/C [39]: 34.8% | viability, T/C [40]: 47.2% | viability, T/C (second compound 10 µM, first compound 0.316 µM): 33.8% | viability, T/C (second compound 10 µM, first compound 1 µM): 17.4% | viability, T/C (second compound 10 µM, first compound 3.16 µM): 13.3% | viability, T/C (second compound 10 µM, first compound 10 µM): 6.24%

CCN1CCN(Cc2ccc(Nc3ncc(F)c(-c4cc(F)c5nc(C)n(C(C)C)c5c4)n3)nc2)CC1 + CCN1C(C(=O)NC23CCC(C(=O)O)(CC2)CC3)C(c2cccc(Cl)c2F)C2(C(=O)Nc3cc(Cl)ccc32)C12CCCCC2
pIC50 [1]: < 6.00 | pIC50 [2]: < 6.00 | pIC50 [3]: < 6.00 | pIC50 [4]: < 6.00 | pIC50 [5]: < 6.00 | viability, T/C (second compound 0.03 µM, first compound 0.00316 µM): 100% | viability, T/C (second compound 0.03 µM, first compound 0.01 µM): 97.4% | viability, T/C [6]: 103% | viability, T/C [7]: 110% | viability, T/C [8]: 114% | viability, T/C [9]: 116% | viability, T/C (second compound 0.0949 µM, first compound 0.00316 µM): 99.5% | viability, T/C (second compound 0.0949 µM, first compound 0.01 µM): 110% | viability, T/C [10]: 101% | viability, T/C [11]: 111% | viability, T/C [12]: 114% | viability, T/C [13]: 116% | viability, T/C (second compound 0.3 µM, first compound 0.00316 µM): 106% | viability, T/C (second compound 0.3 µM, first compound 0.01 µM): 111% | viability, T/C [14]: 122% | viability, T/C [15]: 103% | viability, T/C [16]: 102% | viability, T/C [17]: 131% | viability, T/C (second compound 0.949 µM, first compound 0.00316 µM): 94.3% | viability, T/C (second compound 0.949 µM, first compound 0.01 µM): 93.4% | viability, T/C [18]: 100% | viability, T/C [19]: 102% | viability, T/C [20]: 92.9% | viability, T/C [21]: 96% | viability, T/C (second compound 3 µM, first compound 0.00316 µM): 77.9% | viability, T/C (second compound 3 µM, first compound 0.01 µM): 84.7% | viability, T/C [22]: 85.5% | viability, T/C [23]: 89.9% | viability, T/C [24]: 80.1% | viability, T/C [25]: 121%

Cn1ncnc1[C@H]1c2n[nH]c(=O)c3cc(F)cc(c23)N[C@@H]1c1ccc(F)cc1 + Cc1c(S(C)(=O)=O)c(-c2cc(F)cc(N3CCN(c4ccc(NS(=O)(=O)c5ccc(NC(CCN6CCC(C(=O)OCCCP(=O)(O)O)CC6)CSc6ccccc6)c(S(=O)(=O)C(F)(F)F)c5)cc4)CC3)c2)c(-c2ccc(Cl)cc2)n1C(C)C
pIC50 [26]: < 7.00 | pIC50 [27]: 8.42 | pIC50 [28]: 8.91 | pIC50 [29]: > 9.50 | pIC50 [30]: > 9.50 | viability, T/C (second compound 0.1 µM, first compound 0.000316 µM): 73.2% | viability, T/C (second compound 0.1 µM, first compound 0.001 µM): 77.1% | viability, T/C (second compound 0.1 µM, first compound 0.00316 µM): 70.5% | viability, T/C (second compound 0.1 µM, first compound 0.01 µM): 63.3% | viability, T/C [31]: 58.9% | viability, T/C [32]: 55% | viability, T/C (second compound 0.316 µM, first compound 0.000316 µM): 61.4% | viability, T/C (second compound 0.316 µM, first compound 0.001 µM): 58.8% | viability, T/C (second compound 0.316 µM, first compound 0.00316 µM): 53.3% | viability, T/C (second compound 0.316 µM, first compound 0.01 µM): 37% | viability, T/C [33]: 29.2% | viability, T/C [34]: 23.6% | viability, T/C (second compound 1 µM, first compound 0.000316 µM): 47.1% | viability, T/C (second compound 1 µM, first compound 0.001 µM): 58.7% | viability, T/C (second compound 1 µM, first compound 0.00316 µM): 37% | viability, T/C (second compound 1 µM, first compound 0.01 µM): 15.5% | viability, T/C [35]: 25.8% | viability, T/C [36]: 15.2% | viability, T/C (second compound 3.16 µM, first compound 0.000316 µM): 34.2% | viability, T/C (second compound 3.16 µM, first compound 0.001 µM): 44.3% | viability, T/C (second compound 3.16 µM, first compound 0.00316 µM): 33.3% | viability, T/C (second compound 3.16 µM, first compound 0.01 µM): 19.7% | viability, T/C [37]: 12.5% | viability, T/C [38]: 10.6% | viability, T/C (second compound 10 µM, first compound 0.000316 µM): 40.9% | viability, T/C (second compound 10 µM, first compound 0.001 µM): 34.6% | viability, T/C (second compound 10 µM, first compound 0.00316 µM): 27.7% | viability, T/C (second compound 10 µM, first compound 0.01 µM): 13.2% | viability, T/C [39]: 11.1% | viability, T/C [40]: 12%
